The results in this text go back to patent publication US9757364B2, “Naphthyridine derivative compounds” (ASTEX THERAPEUTICS LIMITED, priority 2011, dated 2017).

Common to all, as to experiment: cells
Experiment [1] has as its system Ba/F3-Flt3-transfected cells. Particulars: read-out: BAF3-FLT3 (MIN IL3) pIC50 (converted). Here is the method:
Ba/F3-Flt3 (Minus IL3 or Plus IL3) (Cellular Proliferation Assay)
(§1) Cells were put in an incubator at 37° C. and 5% CO2.
(§2) As a counterscreen the same experiment was performed in the presence of 10 ng/ml murine IL3.

The test system of experiment [2] is Ba/F3-KDR-transfected cells. Here is the method:
Ba/F3-KDR (Minus IL3 or Plus IL3) (Cellular Proliferation Assay)
as §1, §2

Experiment [3] concerns Ba/F3-FGFR1-transfected cells. Here is the method:
Ba/F3-FGFR1 (Minus IL3 or Plus IL3) (Cellular Proliferation Assay)
as §1, §2

The mark [4] stands for this setting: read-out: BAF3-KDR (MIN IL3) pIC50 (converted).
[5] abbreviates: read-out: BAF3-KDR (PLUS IL3) pIC50 (converted).

Like-named read-outs stand apart in the source and are kept apart here.

Regarding `COc1cc(OC)cc(N(CCO)c2ccc3ncc(-c4cnn(C)c4)cc3n2)c1` [Compound 1], the IC50 in experiment [1] (24 h) was 8.91 µM.
The same measure, in the same setting: as for `COc1cc(OC)cc(N(CCCO)c2ccc3ncc(-c4cnn(C)c4)cc3n2)c1` [Compound 2], the figure is over 10 µM; as for `COCCN(c1cc(OC)cc(OC)c1)c1ccc2ncc(-c3cnn(C)c3)cc2n1` [Compound 3], over 10 µM.
Consider `COc1cc(OC)cc(N(CCNC(C)C)c2ccc3ncc(-c4cnn(C)c4)cc3n2)c1` [Compound 4], for which the IC50 in experiment [1] (24 h) is 7.94 µM.
Same read-out and setting: as for `COc1cc(/N=c2\ccc3ncc(-c4cnn(C)c4)cc3n2CCNC(C)C)cc(OC)c1` [Compound 5], the figure is over 10 µM.
Still for that read-out and setting: as for `COc1cc(OC)cc(N(CCN(CCNC(C)C)C(C)C)c2ccc3ncc(-c4cnn(C)c4)cc3n2)c1` [Compound 6], the figure is 5.01 µM; as for `COc1cc(OC)cc(N(Cc2nccn2S(=O)(=O)N(C)C)c2ccc3ncc(-c4cnn(C)c4)cc3n2)c1` [Compound 7], over 10 µM.
The same measure, in the same setting: in the case of `C#CCN(c1cc(OC)cc(OC)c1)c1ccc2ncc(-c3cnn(C)c3)cc2n1` [Compound 8] it was over 10 µM; in that of `COc1cc(OC)cc(N(Cc2ncc[nH]2)c2ccc3ncc(-c4cnn(C)c4)cc3n2)c1` [Compound 10], over 10 µM.
On to `COc1cc(OC)c(F)c(N(Cc2ncccn2)c2ccc3ncc(-c4cnn(C)c4)cc3n2)c1F` [Compound 14], for which the IC50 in experiment [1] is 7.76 µM.
The same measure, in the same setting: as for `COc1cc(OC)c(F)c(N(CCCO)c2ccc3ncc(-c4cnn(C)c4)cc3n2)c1F` [Compound 22], the figure is 3.89 µM.
Take `COc1cc(OC)c(F)c(N(Cc2ncccn2)c2ccc3ncc(-c4cnn(C)c4)cc3n2)c1` [Compound 27]: in experiment [1], the IC50 is over 10 µM.
For `COc1cc(OC)c(F)c(N(Cc2nccn2S(=O)(=O)N(C)C)c2ccc3ncc(-c4cnn(C)c4)cc3n2)c1F` [Compound 64], in experiment [1], the IC50 is 2.45 µM.
The same measure, in the same setting: in the case of `COc1cc(OC)c(F)c(N(Cc2ncc[nH]2)c2ccc3ncc(-c4cnn(C)c4)cc3n2)c1F` [Compound 65] it was 3.55 µM.
`COc1cc(OC)cc(N(Cc2nccn2S(=O)(=O)N(C)C)c2cc3cc(-c4cnn(C)c4)cnc3cn2)c1` [Compound 66]: the IC50 in experiment [2] (setting [4]) and in experiment [2] (setting [5]) was over 10 µM each time.
In the case of `COc1cc(OC)cc(N(Cc2ncc[nH]2)c2cc3cc(-c4cnn(C)c4)cnc3cn2)c1` [Compound 67], the IC50 in experiment [2] (setting [4]) and in experiment [2] (setting [5]) was over 10 µM throughout.
Turning to `COc1cc(OC)cc(N(CCNC(C)C)c2cc3cc(-c4cnn(C)c4)cnc3cn2)c1` [Compound 68], the IC50 in experiment [2] (setting [4]) and in experiment [2] (setting [5]) was over 10 µM each time.
As to `COCCN(c1cc(OC)cc(OC)c1)c1cc2cc(-c3cnn(C)c3)cnc2cn1` [Compound 69], the IC50 in experiment [2] (setting [4]) is over 10 µM; in experiment [2] (setting [5]), over 10 µM; in experiment [3] (read-out: BAF3-FGFR1 (MIN IL3) pIC50 (converted)) it was 8.13 µM; in experiment [3] (read-out: BAF3-FGFR1 (PLUS IL3) pIC50 (converted)) it was over 10 µM.
As for `CNCCN(c1cc2cc(-c3cnn(C)c3)cnc2cn1)c1cc(OC)cc(OC)c1F` [Compound 73], the IC50 in experiment [2] (setting [4]) and in experiment [2] (setting [5]) was over 10 µM each time.
In the case of `COc1cc(OC)c(F)c(N(CCCO)c2cc3cc(-c4cnn(C)c4)cnc3cn2)c1` [Compound 75], the IC50 in experiment [2] (setting [4]) and in experiment [2] (setting [5]) was over 10 µM throughout.
Regarding `COc1cc(OC)c(F)c(N(Cc2nccn2S(=O)(=O)N(C)C)c2cc3cc(-c4cnn(C)c4)cnc3cn2)c1` [Compound 76], the IC50 in experiment [2] (setting [4]) and in experiment [2] (setting [5]) was over 10 µM throughout.
Consider `COc1cc(OC)c(F)c(N(Cc2ncc[nH]2)c2cc3cc(-c4cnn(C)c4)cnc3cn2)c1` [Compound 77], for which the IC50 in experiment [2] (setting [4]) and in experiment [2] (setting [5]) was over 10 µM each time.
